≈ marks a conversion by molar mass, not a printed value.

The subject of one assay is KB. The experiment in a line: Compound was tested for in vitro cytotoxicity against KB (human epidermoid carcinoma) cell line. The class given is functional, cell-based.
In assay [1] the test system is P388. The experiment in a line: Compound was tested for in vitro cytotoxicity against P388 (murine lymphocytic leukemia) cell line;No activity. Format: functional, cell-based, Mus musculus.
The test system of another assay is Vero. The experiment in a line: Compound was tested for in vitro cytotoxicity against VERO (African green monkey kidney) cell line. Format: functional, cell-based. The following applies: Chlorocebus sabaeus.
In assay [2] the test system is SK-OV-3. The experiment in a line: Compound was tested for in vitro cytotoxicity against SK-OV-3 (human ovary carcinoma) cell line;No activity. Format: functional, cell-based, Female gonad.
Assay [3] concerns SK-OV-3. The experiment in a line: Compound was tested for in vitro cytotoxicity against SK-OV-3 (human ovary carcinoma) cell line. The class given is functional, cell-based. The following applies: SK-OV-3, Female gonad.
In assay [4] the test system is P388. The experiment in a line: Compound was tested for in vitro cytotoxicity against P388 (murine lymphocytic leukemia) cell line. The class given is functional, cell-based. Conditions: Mus musculus; call rule not given here.
The subject of assay [5] is SK-OV-3. The experiment in a line: Compound was tested for in vitro cytotoxicity against SK-OV-3 (human ovary carcinoma) cell line; No activity. The class given is functional, cell-based, Female gonad.

With `C[C@H]1[C@@H](CCCC(=O)O)O[C@@H]2OC3(C)CCC4[C@H](C)CC[C@@H]1[C@]42OO3` (single isomer, unassigned), the IC50 in the assay with KB is 32 µg/mL (≈ 90.3 µM); in the assay on P388 [1], “Not Active”; with Vero, 30 µg/mL (≈ 84.6 µM); in the assay with SK-OV-3 [2], “Not Active”.

On to `C[C@H]1[C@@H](Cc2ccccc2)O[C@@H]2OC3(C)CCC4[C@H](C)CC[C@@H]1[C@]42OO3` (single isomer, unassigned), for which the IC50 in the assay with KB is 13 µg/mL (≈ 36.3 µM); in the assay with SK-OV-3 [3], 32 µg/mL (≈ 89.3 µM); with P388 [1], “Not Active”; in the assay with Vero it was 15 µg/mL (≈ 41.8 µM).

In the case of `CC[C@H]1O[C@@H]2O[C@@]3(C)CC[C@H]4[C@H](C)CC[C@@H]([C@H]1C)[C@@]24OO3`, the IC50 was found to be 20 µg/mL (≈ 67.5 µM) in the assay with KB, 33 µg/mL (≈ 111 µM) with SK-OV-3 [3], 5.5 µg/mL (≈ 18.6 µM) in the assay with P388 [4] and 30 µg/mL (≈ 101 µM) in the assay on Vero.

As to `CCCC[C@H]1O[C@@H]2OC3(C)CC[C@H]4[C@H](C)CC[C@@H]([C@H]1C)[C@@]24OO3` (single isomer, unassigned), the IC50 in the assay on KB came out at 4.5 µg/mL (≈ 13.9 µM); in the assay on SK-OV-3 [3], 40 µg/mL (≈ 123 µM); with P388 [4], 40 µg/mL (≈ 123 µM); with Vero it was 15 µg/mL (≈ 46.2 µM).

For `C[C@@H]1CC[C@H]2[C@@H](C)C(=O)O[C@@H]3O[C@@]4(C)CC[C@@H]1[C@]32OO4` [ARTEMISININ], the IC50 is 16 µg/mL (≈ 56.7 µM) in the assay with KB, 28 µg/mL (≈ 99.2 µM) in the assay on P388 [4], 31 µg/mL (≈ 110 µM) in the assay with Vero and “Not Active” in the assay on SK-OV-3 [5].

Consider `C[C@@H]1CC[C@H]2[C@@H](C)CO[C@@H]3OC4(C)CC[C@@H]1[C@]32OO4` (single isomer, unassigned) [DEOXOARTEMISININ], for which the IC50 in the assay on KB was 24 µg/mL (≈ 89.4 µM); in the assay with SK-OV-3 [3], 40 µg/mL (≈ 149 µM); in the assay on P388 [1] it was “Not Active”; in the assay on Vero, 30 µg/mL (≈ 112 µM).

As for `C[C@@H]1CCC2[C@@H](C)CCO[C@@H]3OC4(C)CCC1C23OO4` (single isomer, unassigned), the IC50 with KB was 22 µg/mL (≈ 77.9 µM); in the assay on P388 [4], 8 µg/mL (≈ 28.3 µM); in the assay on Vero, 30 µg/mL (≈ 106 µM); with SK-OV-3 [2], “Not Active”.

With `CCN(CC)Cc1ccc(C(=O)O[C@@H]2O[C@@H]3OC4(C)CCC5[C@H](C)CC[C@@H]([C@H]2C)[C@]53OO4)cc1` (single isomer, unassigned), the IC50 in the assay on KB was 3 µg/mL (≈ 6.33 µM); in the assay on P388 [1], “Not Active”; in the assay on Vero, 15 µg/mL (≈ 31.7 µM); in the assay with SK-OV-3 [2], “Not Active”.

Take `CCO[C@H]1O[C@@H]2OC3(C)CCC4[C@H](C)CC[C@@H]([C@H]1C)[C@]42OO3` (single isomer, unassigned): the half-maximal inhibitory concentration (IC50) with KB is 15 µg/mL (≈ 48 µM); in the assay on P388 [1], “Not Active”; in the assay with Vero it was 28 µg/mL (≈ 89.6 µM); with SK-OV-3 [2] it was “Not Active”.
